Experimental data as given in patent publication US20170354148A1, “SAFENED HERBICIDAL COMPOSITIONS CONTAINING HALAUXIFEN AND METHODS OF USE THEREOF IN BRASSICA SPECIES” (Dow AgroSciences LLC, priority 2016, published 2017).
Where “and” joins values, the source holds several entries; their conditions need not be identical. Identical values can stand only once.

Tested on: Spring Argentine canola (Brassica napus, BRSNS)
Test: Example 3 field trials (Canada), postemergence crop safety, visual phytotoxicity
[1] = BRSNS, trial 1, 17DAA1, 150 g ae/ha
[2] = BRSNS, trial 1, 32DAA1, 150 g ae/ha

SMILES: O=C(O)c1nc(Cl)ccc1Cl [Clopyralid-olamine, 2-hydroxyethanaminium 3,6-dichloro-2-pyridinecarboxylate]
- Mean % Visual Injury (BRSNS, 7DAAA, 150 g ae/ha (Tables 10, 11)): 0.0%
- Mean % Visual Injury (BRSNS, 15DAAA, 150 g ae/ha (Tables 10, 11)): 1.5%
- Mean % Visual Injury (BRSNS, 27DAAA, 150 g ae/ha (Tables 10, 11)): 1.0%
- Mean % Visual Injury (BRSNS, 57DAAA, 150 g ae/ha (Tables 10, 11)): 2.0%
- Mean % Visual Deformation (BRSNS, 60DAA1, 150 g ae/ha): 0.0%
- Mean % Visual Injury (BRSNS, trial 1, 7DAA1, 150 g ae/ha): 1.0%
- Mean % Visual Epinasty [1]: 1.0%
- Mean % Visual Injury [1]: 1.3%
- Mean % Visual Epinasty [2]: 3.5%
- Mean % Visual Injury [2]: 7.0%
- Mean % Visual Injury (BRSNS, trial 1, 49DAA1, 150 g ae/ha): 2.8%
- Mean % Visual Injury (BRSNS, trial 2, 8DAA1, 150 g ae/ha): 1.8% and 2.0% and 1.3% and 1.4% and 1.5% and 1.0%
- Mean % Visual Injury (BRSNS, trial 2, 17DAA1, 150 g ae/ha): 2.5%
- Mean % Visual Epinasty (BRSNS, trial 2, 35DAA1, 150 g ae/ha): 3.5% and 2.0%
- Mean % Visual Injury (BRSNS, trial 2, 48DAA1, 150 g ae/ha): 2.0% and 0.8%
- Mean % Visual Epinasty (BRSNS, trial 3, 6DAA1, 150 g ae/ha): 0.0%
- Mean % Visual Epinasty (BRSNS, trial 3, 23DAA1, 150 g ae/ha): 0.0%
- Mean % Visual Injury (BRSNS, trial 3, 33DAA1, 150 g ae/ha): 0.5% and 1.0%
- Mean % Visual Injury (BRSNS, trial 3, 69DAA1, 150 g ae/ha): 0.0%
- Mean % Visual Injury (BRSNS, trial 4, 8DAA1, 150 g ae/ha): 1.5%
- Mean % Visual Injury (BRSNS, trial 4, 15DAA1, 150 g ae/ha): 1.5%
- Mean % Visual Epinasty (BRSNS, trial 4, 17DAA1, 200 g ae/ha): 0.0%
- Mean % Visual Injury (BRSNS, trial 4, 41DAA1, 150 g ae/ha): 0.8%
- Mean % Visual Injury (BRSNS, trial 4, 82DAA1, 150 g ae/ha): 0.0%
- Mean % Visual Injury (BRSNS, trial 5, 7DAA1, 150 g ae/ha): 0.5% and 0.0% and 1.3% and 1.5%
- Mean % Visual Injury (BRSNS, trial 5, 15DAA1, 150 g ae/ha): 0.0% and 0.5%
- Mean % Visual Injury (BRSNS, trial 5, 36DAA1, 150 g ae/ha): 0.5%
- Mean % Visual Injury (BRSNS, trial 5, 79DAA1, 150 g ae/ha): 0.0%
- Mean % Visual Injury (BRSNS, trial 6, 6DAA1, 150 g ae/ha): 0.0%
- Mean % Visual Injury (BRSNS, trial 6, 23DAA1, 150 g ae/ha): 0.0%
- Mean % Visual Injury (BRSNS, trial 6, 33DAA1, 150 g ae/ha): 2.0%
- Mean % Visual Injury (BRSNS, trial 6, 59DAA1, 150 g ae/ha): 3.5%
- Mean % Visual Injury (BRSNS, trial 7, 17DAA1, 100 g ae/ha): 0.0%
- Mean % Visual Injury (BRSNS, trial 7, 17DAA1, 150 g ae/ha): 0.0%
- Mean % Visual Injury (BRSNS, trial 7, 17DAA1, 200 g ae/ha): 0.0%
- Mean % Visual Injury (BRSNS, trial 7, 27DAA1, 150 g ae/ha): 0.0%
- Mean % Visual Injury (BRSNS, trial 7, 27DAA1, 200 g ae/ha): 3.0%
- Mean % Visual Injury (BRSNS, trial 8, 7DAA1, 150 g ae/ha): 1.5%
- Mean % Visual Injury (BRSNS, trial 8, 57DAA1, 150 g ae/ha): 2.3%
- Mean % Visual Injury (BRSNS, trial 9, 27DAA1, 150 g ae/ha): 1.0%
- Mean % Visual Injury (BRSNS, trial 9, 60DAA1, 150 g ae/ha): 0.0%
- Mean % Visual Injury (Table 15, 7DAAA, halauxifen-methyl 5, clopyralid-olamine 150, quinclorac 101 g ae/ha, alone or mixed): 0.0%
- Mean % Visual Injury (Table 15, 15DAAA, halauxifen-methyl 5, clopyralid-olamine 150, quinclorac 101 g ae/ha, alone or mixed): 1.5%
- Mean % Visual Injury (Table 15, 27DAAA, halauxifen-methyl 5, clopyralid-olamine 150, quinclorac 101 g ae/ha, alone or mixed): 1.0%
- Mean % Visual Injury (Table 15, 57DAAA, halauxifen-methyl 5, clopyralid-olamine 150, quinclorac 101 g ae/ha, alone or mixed): 2.0%
- Mean % Visual Injury (Table 17, 7DAAA, halauxifen-methyl 5, clopyralid-olamine 150 g ae/ha alone, or both mixed with isoxadifen-ethyl 5 g ae/ha): 0.0%
- Mean % Visual Injury (Table 17, 15DAAA, halauxifen-methyl 5, clopyralid-olamine 150 g ae/ha alone, or both mixed with isoxadifen-ethyl 5 g ae/ha): 1.5%
- Mean % Visual Injury (Table 17, 27DAAA, halauxifen-methyl 5, clopyralid-olamine 150 g ae/ha alone, or both mixed with isoxadifen-ethyl 5 g ae/ha): 1.0%
- Mean % Visual Injury (Table 17, 57DAAA, halauxifen-methyl 5, clopyralid-olamine 150 g ae/ha alone, or both mixed with isoxadifen-ethyl 5 g ae/ha): 2.0%
- Mean % Visual Injury (Table 18, 8DAAA, halauxifen-methyl 5, clopyralid-olamine 150 g ae/ha, alone or mixed): 0.5%
- Mean % Visual Injury (Table 18, 14DAAA, halauxifen-methyl 5, clopyralid-olamine 150 g ae/ha, alone or mixed): 0.5%
- Mean % Visual Injury (Table 18, 40DAAA, halauxifen-methyl 5, clopyralid-olamine 150 g ae/ha, alone or mixed): 0.0%
- Mean % Visual Injury (Table 18, 81DAAA, halauxifen-methyl 5, clopyralid-olamine 150 g ae/ha, alone or mixed): 0.0%
- Mean % Visual Injury (Table 19, 8DAAA, halauxifen-methyl 5, clopyralid-olamine 150 g ae/ha alone, or both mixed with isoxadifen-ethyl 20 g ae/ha): 0.5%
- Mean % Visual Injury (Table 19, 14DAAA, halauxifen-methyl 5, clopyralid-olamine 150 g ae/ha alone, or both mixed with isoxadifen-ethyl 20 g ae/ha): 0.5%
- Mean % Visual Injury (Table 19, 40DAAA, halauxifen-methyl 5, clopyralid-olamine 150 g ae/ha alone, or both mixed with isoxadifen-ethyl 20 g ae/ha): 0.0%
- Mean % Visual Injury (Table 19, 81DAAA, halauxifen-methyl 5, clopyralid-olamine 150 g ae/ha alone, or both mixed with isoxadifen-ethyl 20 g ae/ha): 0.0%
- Mean % Visual Injury (Table 22, 8DAAA, halauxifen-methyl 5, clopyralid-olamine 150, quinclorac 101 g ae/ha, alone or mixed): 0.5%
- Mean % Visual Injury (Table 22, 14DAAA, halauxifen-methyl 5, clopyralid-olamine 150, quinclorac 101 g ae/ha, alone or mixed): 0.5%
- Mean % Visual Injury (Table 22, 40DAAA, halauxifen-methyl 5, clopyralid-olamine 150, quinclorac 101 g ae/ha, alone or mixed): 0.0%
- Mean % Visual Injury (Table 22, 81DAAA, halauxifen-methyl 5, clopyralid-olamine 150, quinclorac 101 g ae/ha, alone or mixed): 0.0%
- Mean % Visual Injury (Table 23, 7DAAA, halauxifen-methyl 5, clopyralid-olamine 150 g ae/ha, alone or mixed): 2.0%
- Mean % Visual Injury (Table 23, 17DAAA, halauxifen-methyl 5, clopyralid-olamine 150 g ae/ha, alone or mixed): 1.0%
